Measurements: US20090176714A1, “METHOD OF REDUCING THE EFFECTS OF ABeta AND COMPOSITIONS THEREFORE” (priority 2004, published 2009)

What was measured:
tau [1] = test: Tau phosphorylation in human cortical slices (AT8, phospho-tau(Thr231), electron microscopy); assay type: cell-based
Experimental: β-amyloid1-42 and reverse Aβ (Aβ42-1) were obtained from BACHEM (Torrance, Calif.). These peptides were dissolved in 0.1% NH3OH at 222 μM. For treatments, Aβ or reverse Aβ was aggregated at 50 μM in Neurobasal media with B-27 supplement and 0.5 mM glutamine at 37° C. for 24 hours. […] Human TTR (Calbiochem) was added to slices together with the Aβ treatment at final concentrations of 0.03, 0.3, and 3 μM TTR. sAPPα was obtained from Sigma (St. Louis, Mo.). Unless otherwise stated, all sAPPα treatments were performed at 1 nM 48 hours prior to the addition of Aβ. The 10 amino acid fragment of the carboxyl-terminal region of sAPPα (592-601 of APP695; SEVKMDAEFR was added according to the same protocol for sAPPα. Because a variable amount of tissue was obtained from each patient, not all treatments were performed on all patients.
Slices were fixed in 4% PFA for 20 minutes, incubated in 30% sucrose in phosphate buffered saline overnight, and frozen in OCT embedding medium. Frozen sections with a width of 10 μm were taken through each slice. Phosphorylated tau was detected with the monoclonal AT8 antibody (1:200; Research Diagnostics, Flanders, N.J.) and anti-phospho-tau(Thr231) (1:500; Calbiochem, San Diego, Calif.). As a control, pre-immune rabbit or mouse IgG (Vector Laboratories, Burlingame, Calif.) was used in place of the primary antibody. A biotinylated anti-rabbit IgG or anti-mouse IgG was used as the secondary antibody. The Vectastain Elite ABC kit (Vector) and tyramide conjugated to either Alexa Fluor 488 or 568 (Molecular Probes, Eugene, Oreg.) were used to visualize the antibody staining. Anti-NeuN (1:250; Chemicon International, Temecula, Calif.) together with an anti-mouse IgG secondary antibody conjugated to Alexa Fluor 647 was used to detect the neuronal marker NeuN. Sections were imaged using either the Bio-Rad Laser Scanning Confocal system or epifluorescence (Zeiss, Thornwood, N.Y.).

tau [2] = test: Tau phosphorylation (AT8, phospho-tau(Thr231) immunohistochemistry, immunoblot, electron microscopy) in hippocampal slices; assay type: cell-based, mouse
Experimental: Mice were killed with CO2 and immediately perfused through the heart with phosphate buffered saline (PBS). The right hemispheres were fixed in 4% paraformaldehyde (PFA) overnight, sunk in 30% sucrose, and frozen in OCT embedding medium. Hippocampal slices were fixed in 4% PFA for 20 minutes, incubated in 30% sucrose overnight, and frozen in OCT embedding medium. Frozen sections with a width of 10 μm were taken through the hippocampus. Post-mortem human tissue was formalin fixed, cut at 10 μm, and boiled for 10 minutes in a 10 mM Tris buffer, […] for antigen retrieval. IGF-2 and TTR were detected with a 1:200 dilution of the polyclonal antibody against IGF-2 (F-20) or TTR (C-20; Santa Cruz Biotechnology, Santa Cruz, Calif.). Phospho-BAD (Ser112; Cell Signaling, Beverly, Mass.), and BAD (Stressgen, Victoria, British Columbia) were detected with a 1:250 dilution of the respective polyclonal antibody. Phosphorylated tau was detected with the monoclonal AT8 antibody (1:200; Research Diagnostics, Flanders, N.J.) and anti-phospho-tau(Thr231) (1:500; Calbiochem, San Diego, Calif.). As a control pre-immune rabbit or mouse IgG (Vector Laboratories, Burlingame, Calif.) or goat IgG (Santa Cruz) was used in place of the primary antibody. A biotinylated anti-goat IgG, anti-rabbit IgG, or anti-mouse IgG was used as the secondary antibody. Finally, the Vectastain Elite ABC kit (Vector) and tyramide conjugated to either Alexa Fluor 488 or 568 (Molecular Probes, Eugene, Oreg.) were used to visualize the antibody staining. Anti-NeuN (1:250; Chemicon International, Temecula, Calif.) and 4G8 (1:250; Signet, Dedham, Mass.) together with an anti-mouse IgG secondary antibody conjugated to Alexa Fluor 488 were used to detect NeuN and Aβ. The DNA binding dyes ToPro3 (Molecular Probes) or Hoechst 33258 (Sigma, St. Louis, Mo.) were used to visualize nuclei. Sections were imaged using either the Bio-Rad Laser Scanning Confocal system or epifluorescence (Zeiss, Thornwood, N.Y.). Representative figures were obtained from 3 APPSw mice and 3 non-transgenic controls, 3 animals per treatment for hippocampal slices, or from 4 goat IgG and 4 anti-TTR antibody infused mice.
Following treatment with 50 μM Aβ or reverse Aβ for 24 hours, hippocampal slice cultures were fixed with a mixture of 2% PFA/2.5% glutaraldehyde in 0.1 M Sorensons phosphate buffer (pH 7.4) for 1 hour and then post fixed for 1 hour in 2% osmium tetroxide in the same buffer. The slices were then dehydrated in an ethanol series and embedded in Epon epoxy resin. Ultrathin sections were cut on a Reichert-Jung microtome, placed on copper grids, and stained with routine concentrations of uranyl acetate and lead citrate. Micrographs were taken with a Philips CM120 electron microscope. […]

hippocampal slices = test: TUNEL and Nissl staining of hippocampal slices; assay type: cell-based, mouse; settings: 25 μM or 50 μM Aβ
Experimental: Hippocampal slice cryosections from 3 animals per treatment were stained with terminal deoxynucleotidyl transferase-mediated, dUTP nick end labeling (TUNEL). Cells with DNA fragmentation were determined by the terminal deoxynucleotidyl transferase incorporation of fluorescein isothiocyanate (FITC)-12-dUTP into DNA (In Situ Cell Death Detection kit, Roche Biochem, Indianapolis, Ind.). Other sections were stained with cresyl violet acetate, and the neurons with healthy nuclei as well as the neurons with condensed and clumped chromatin were counted within the neuronal fields.
β-amyloid1-42 and reverse Aβ (Aβ42-1) were obtained from BACHEM (Torrance, Calif.). These polypeptides were dissolved in 0.1% NH3OH at 222 μM. For treatments, Aβ was aggregated at 50 μM in Neurobasal media with B-27 supplement and 1 mM glutamine at 37° C. for 24 hours. Then, the slice culture media was removed, and the slices were treated with 1 mL of 25 μM or 50 μM Aβ, reverse Aβ, or vehicle for 24 hours. Human TTR (Calbiochem) or IGF-2 (Peprotech, Rocky Hill, N.J.) was added to slices together with the Aβ treatment at final concentrations of 3 μM (TTR) or 500 nM (IGF-2). sAPPα was prepared as described previously (Mattson et al., Neuron, 10:243-254 (1993)).
Unless otherwise stated, all sAPPα treatments were performed at 1 nM 48 hours prior to the addition of Aβ. […]

## β-amyloid1-42 [Aβ]
Tau [1]; 50 μM Aβ
  AT8 positive cells: several AT8 positive cells
  Somatic phospho-tau(Thr231) in NeuN positive neurons: several NeuN positive neurons with high levels of somatic phospho-tau(Thr231)
Tau [1]; 50 μM Aβ for 1 week
  Tangle-like structures, electron microscopy: small number of neurons with tangle-like structures
Tau [2]; 25 μM or 50 μM
  AT8 (phosphorylated tau) staining of neurons in hippocampal neuronal fields: many neurons within the hippocampal neuronal fields were AT8 positive
Tau [2]; 25 μM or 50 μM Aβ
  Phospho-tau(Thr-231) staining of neurons: several neurons stained positively for phospho-tau(Thr-231)
Tau [2]; 50 μM
  Levels of phosphorylated tau, immunoblot for phospho-tau(Thr-231): increased the levels of phosphorylated tau
Tau [2]; 50 μM Aβ, 24 hours
  Filaments within the cytoplasm of neurons, electron microscopy: presence of long, straight filaments
Hippocampal slices
  DNA strand breaks as indicated by TUNEL: resulted in DNA strand breaks
Hippocampal slices; FIG. 1
  Percent of neurons with chromatin condensation: significant increase
